Patent US7829560B2, “1,4-disubstituted naphthalenes as inhibitors of P38 MAP kinase” (Arqule, Inc., priority 2004, dated 2010)
pIC50: −log10 of the molar value.

Tests used:
p38α = molecular target: T1, p38α (Homo sapiens, UniProt Q16539); assay: p38 MAP Kinase assay: inhibition of ATF2 phosphorylation, ELISA; format: biochemical; conditions: ATF2 phosphorylation; read-out: [ENZ] P38 ALPHA, IC50, ELISA
T1 construct: p38 MAP Kinases are recombinant human full-length proteins with an amino-terminal GST fusion; GST (N); purchased Upstate Biotechnology Inc; host or cells: E. coli
T1 sequence (Q16539 whole entry, the tested form may be a part): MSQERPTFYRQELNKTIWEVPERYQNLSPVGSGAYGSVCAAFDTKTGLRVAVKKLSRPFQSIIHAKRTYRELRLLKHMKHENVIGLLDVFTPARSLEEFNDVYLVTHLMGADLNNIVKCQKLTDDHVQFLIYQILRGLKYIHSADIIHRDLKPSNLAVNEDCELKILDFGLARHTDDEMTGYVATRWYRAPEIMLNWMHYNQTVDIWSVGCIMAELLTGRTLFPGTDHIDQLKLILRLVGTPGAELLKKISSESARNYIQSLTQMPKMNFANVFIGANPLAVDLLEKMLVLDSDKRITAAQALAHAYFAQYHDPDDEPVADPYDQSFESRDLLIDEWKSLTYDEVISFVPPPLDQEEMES
In short: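 GST-tagged full-length human p38 MAP kinase with GST-ATF2 (aa 19–96; 1.25 μM) and 40 μM ATP in HEPES pH 7.5 buffer, without (Method I) or with (Method II) 1% human serum albumin. Compound pre-incubated 15 min at room temperature; reaction 30 min at 37 °C; ATF2 Thr69 phosphorylation measured by ELISA (A450).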

[1] = tested on: TNFα release from THP-1 cells; assay: Inhibition of TNFα release from LPS-stimulated THP-1 cells, ELISA; format: cell-based; conditions: Homo sapiens, THP-1, THP-1 cells, read-out: [CELL] THP-1, IC50, TNF ALPHA, ELISA
In short: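 Human THP-1 monocytes, 10^6 cells/ml in RPMI with 10% FBS, no serum or 1% HSA, preincubated 30 min at 37 °C with compound (≤0.5% DMSO), then stimulated with 10 μg/ml LPS for 18 h. Supernatant TNFα measured by ELISA; IC50 from non-linear dose-response regression.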

Row | SMILES | pIC50 (p38α) | pIC50 [1] | melting point [°C]
1 | O=C(Nc1ccc(OCCN2CCOCC2)c2ccccc12)c1cc(F)cc(OC2CCCCC2)c1 [Compound B195, 3-(Cyclohexyloxy)-5-fluoro-N-[4-(2-morpholin-4-ylethoxy)-1-naphthyl]benzamide] | 6.38 | < 5.00 | 116 to 118
2 | CSc1nccc(Oc2ccc(NC(=O)c3cc(F)cc(N4CCCCC4)c3)c3ccccc23)n1 [Compound B311, 3-Fluoro-N-(4-{[2-(methylthio)pyrimidin-4-yl]oxy}-1-naphthyl)-5-piperidin-1-ylbenzamide] | 7.25 | 6.75 | 170 to 172
3 | CC1=NC(C)(COc2ccc(NC(=O)c3cc(F)cc(N4CCOCC4)c3)c3ccccc23)CO1 (stereo not drawn) [Compound B232, N-{4-[(2,4-Dimethyl-4,5-dihydro-1,3-oxazol-4-yl)methoxy]-1-naphthyl}-3-fluoro-5-morpholin-4-ylbenzamide] | 5.10 | 5.37 | 203 to 206
4 | CC(C)N(C)c1nccc(Oc2ccc(NC(=O)c3cc(F)cc(N4CCOCC4)c3)c3ccccc23)n1 [Compound B322, 3-Fluoro-N-[4-({2-[isopropyl(methyl)amino]pyrimidin-4-yl}oxy)-1-naphthyl]-5-morpholin-4-ylbenzamide] | 7.35 | 6.22 | 94 to 96
5 | CSc1nccc(-c2ccc(NC(=O)c3cc(F)cc(N4CCOCC4)c3)c3ccccc23)n1 [Compound B270, 3-Fluoro-N-[4-(2-methylsulfanyl-pyrimidin-4-yl)-naphthalen-1-yl]-5-morpholin-4-yl-benzamide] | 5.78 | 5.19 | 135 to 138
6 | CC1CCN(c2nccc(Oc3ccc(NC(=O)c4cc(F)cc(N5CCOCC5)c4)c4ccccc34)n2)CC1 [Compound B335, 3-Fluoro-N-(4-{[2-(4-methylpiperidin-1-yl)pyrimidin-4-yl]oxy}-1-naphthyl)-5-morpholin-4-ylbenzamide] | 7.65 | < 6.00 | 117 to 118
7 | CS(=O)(=O)c1nccc(Oc2ccc(NC(=O)c3cc(F)cc(N4CCOCC4)c3)c3ccccc23)n1 [Compound B268, 3-Fluoro-N-(4-{[2-(methylsulfonyl)pyrimidin-4-yl]oxy}-1-naphthyl)-5-morpholin-4-ylbenzamide] | 6.28 | 5.86 | 173 to 175
8 | O=C(Nc1ccc(OCc2ccncc2)c2ccccc12)c1cc(F)cc(N2CCCCC2)c1 [Compound B230, 3-Fluoro-5-piperidin-1-yl-N-[4-(pyridin-4-ylmethoxy)-1-naphthyl]benzamide] | 7.59 | 6.20 | 69 to 71
9 | CSc1nccc(Oc2ccc(NC(=O)c3cccc(OC(C)(C)C)c3)c3ccccc23)n1 [Compound B306, 3-tert-Butoxy-N-[4-(2-methylsulfanyl-pyrimidin-4-yloxy)-naphthalen-1-yl]-benzamide] | 7.13 | 6.82 | 135 to 136
10 | COc1ccc(CCOc2ccc(NC(=O)c3cc(F)cc(N4CCOCC4)c3)c3ccccc23)cc1OC [Compound B189, N-{4-[2-(3,4-Dimethoxyphenyl)ethoxy]-1-naphthyl}-3-fluoro-5-morpholin-4-ylbenzamide] | 6.36 | 5.58 | 73 to 75
11 | O=C(Nc1ccc(Oc2ccnc(NC3CCCCC3)n2)c2ccccc12)c1cc(F)cc(N2CCOCC2)c1 [Compound B323, N-(4-{[2-(Cyclohexylamino)pyrimidin-4-yl]oxy}-1-naphthyl)-3-fluoro-5-morpholin-4-ylbenzamide] | 7.92 | 7.44 | 135 to 136

Results, then the compound that gave them:

Row | pIC50 (p38α) | pIC50 [1] | melting point [°C] | SMILES
12 | 8.60 | 8.24 | 116 to 117 | O=C(Nc1ccc(Oc2ccnc(NCC3CC3)n2)c2ccccc12)c1cc(F)cc(N2CCOCC2)c1 [Compound B336, N-[4-({2-[(Cyclopropylmethyl)amino]pyrimidin-4-yl}oxy)-1-naphthyl]-3-fluoro-5-morpholin-4-ylbenzamide]
13 | 6.78 | < 6.00 | 102 to 104 | CC1CC(C)CN(c2nccc(Oc3ccc(NC(=O)c4cc(F)cc(N5CCOCC5)c4)c4ccccc34)n2)C1 (stereo not drawn) [Compound B348, N-(4-{[2-(3,5-Dimethylpiperidin-1-yl)pyrimidin-4-yl]oxy}-1-naphthyl)-3-fluoro-5-morpholin-4-ylbenzamide]
14 | 8.18 | < 6.00 | 160 to 162 | N#CNc1nccc(Oc2ccc(NC(=O)c3cc(F)cc(N4CCCCC4)c3)c3ccccc23)n1 [Compound B380, N-(4-{[2-(Cyanoamino)pyrimidin-4-yl]oxy}-1-naphthyl)-3-fluoro-5-piperidin-1-ylbenzamide]
15 | 7.37 | 6.99 | 101 to 102 | CC1CCC(Nc2nccc(Oc3ccc(NC(=O)c4cc(F)cc(N5CCCCC5)c4)c4ccccc34)n2)CC1 (stereo not drawn) [Compound B388, 3-Fluoro-N-[4-({2-[(4-methylcyclohexyl)amino]pyrimidin-4-yl}oxy)-1-naphthyl]-5-piperidin-1-ylbenzamide]
16 | 8.11 | 7.31 | 128 to 129 | CN1CCC(Nc2nccc(Oc3ccc(NC(=O)c4cc(F)cc(N5CCOCC5)c4)c4ccccc34)n2)CC1 [Compound B362, 3-Fluoro-N-[4-({2-[(1-methylpiperidin-4-yl)amino]pyrimidin-4-yl}oxy)-1-naphthyl]-5-morpholin-4-ylbenzamide]
17 | 8.28 | 6.37 | 180 to 181 | O=C(Nc1ccc(Oc2ccnc(N3CCCC(O)C3)n2)c2ccccc12)c1cc(F)cc(N2CCOCC2)c1 (stereo not drawn) [Compound B346, 3-Fluoro-N-(4-{[2-(3-hydroxypiperidin-1-yl)pyrimidin-4-yl]oxy}-1-naphthyl)-5-morpholin-4-ylbenzamide]
18 | 8.96 | 8.21 | 100 to 101 | CN1CCCC1CCNc1nccc(Oc2ccc(NC(=O)c3cc(F)cc(N4CCOCC4)c3)c3ccccc23)n1 (stereo not drawn) [Compound B344, 3-Fluoro-N-{4-[(2-{[2-(1-methylpyrrolidin-2-yl)ethyl]amino}pyrimidin-4-yl)oxy]-1-naphthyl}-5-morpholin-4-ylbenzamide]
19 | 8.80 | 7.20 | 102 to 104 | CS(=O)(=O)CCNc1nccc(Oc2ccc(NC(=O)c3cc(F)cc(N4CCCCC4)c3)c3ccccc23)n1 [Compound B422, 3-Fluoro-N-{4-[(2-{[2-(methylsulfonyl)ethyl]amino}pyrimidin-4-yl)oxy]-1-naphthyl}-5-piperidin-1-ylbenzamide]
20 | 7.25 | 6.15 | 116 to 117 | C#CCN(C)c1nccc(Oc2ccc(NC(=O)c3cc(F)cc(N4CCCCC4)c3)c3ccccc23)n1 [Compound B407, 3-Fluoro-N-[4-({2-[methyl(prop-2-yn-1-yl)amino]pyrimidin-4-yl}oxy)-1-naphthyl]-5-piperidin-1-ylbenzamide]
21 | 8.24 | 7.11 | 196 to 197 | O=C(Nc1ccc(Oc2ccnc(N3CCC3)n2)c2ccccc12)c1cc(F)cc(N2CCOCC2)c1 [Compound B363, N-{4-[(2-azetidin-1-ylpyrimidin-4-yl)oxy]-1-naphthyl}-3-fluoro-5-morpholin-4-ylbenzamide]
22 | 7.06 | 6.23 | 145 to 146 | CC1CCN(c2nccc(Oc3ccc(NC(=O)c4cc(F)cc(N5CCCCC5)c4)c4ccccc34)n2)CC1 [Compound B381, 3-Fluoro-N-(4-{[2-(4-methylpiperidin-1-yl)pyrimidin-4-yl]oxy}-1-naphthyl)-5-piperidin-1-ylbenzamide]
23 | 6.95 | 6.11 | 172 to 174 | O=C(Nc1ccc(Oc2ccnc(N3CCC(F)(F)CC3)n2)c2ccccc12)c1cc(F)cc(N2CCCCC2)c1 [Compound B423, N-(4-{[2-(4,4-Difluoropiperidin-1-yl)pyrimidin-4-yl]oxy}-1-naphthyl)-3-fluoro-5-piperidin-1-ylbenzamide]
24 | 8.13 | 6.25 | 102 to 104 | CC(=O)N1CCN(c2nccc(Oc3ccc(NC(=O)c4cc(F)cc(N5CCCCC5)c4)c4ccccc34)n2)CC1 [Compound B400, N-(4-{[2-(4-Acetylpiperazin-1-yl)pyrimidin-4-yl]oxy}-1-naphthyl)-3-fluoro-5-piperidin-1-ylbenzamide]
25 | 8.68 | 7.05 | 92 to 94 | O=C(Nc1ccc(Oc2ccnc(NCCN3CCCC3)n2)c2ccccc12)c1cc(F)cc(N2CCCCC2)c1 [Compound B389, 3-Fluoro-5-piperidin-1-yl-N-[4-({2-[(2-pyrrolidin-1-ylethyl)amino]pyrimidin-4-yl}oxy)-1-naphthyl]benzamide]
26 | 8.20 | 7.04 | 117 to 119 | O=C(Nc1ccc(Oc2ccnc(NCC3CC3)n2)c2ccccc12)c1cc(F)cc(N2CCCCC2)c1 [Compound B384, N-[4-({2-[(cyclopropylmethyl)amino]pyrimidin-4-yl}oxy)-1-naphthyl]-3-fluoro-5-piperidin-1-ylbenzamide]
